Assay results reported in US11123328B2 (UNIVERSITY HEALTH NETWORK, priority 2017, dated 2021).
“Also recorded” adds a separate entry of the source.

Columns and labels:
[1] = test system: ventricular arrhythmia swine model; settings: previous work [4]; cited from earlier work
[2] = test system: patients without known cardiac diseases; settings: human, in vivo
[3] = test system: patients without known cardiac diseases; assay: Safety of chronic oral dantrolene: ECG, echo, Holter, stress test in patients (Example 4)
[4] = test system: patients without known cardiac disease; assay: Safety of chronic oral dantrolene, 10-year experience: ECG and echocardiogram (Example 5)
From the text: If more than 1 electrocardiogram and/or echocardiogram were available for any single patient, all were studied (to assess for any abnormality), but only the latest (with the longest therapy duration) was included in the analysis.

[5] = test system: Langendorff-perfused rabbit hearts; assay: Calcium alternans by optical mapping in Langendorff-perfused rabbit hearts stressed by VF (Example 1); settings: for CaAR (calcium alternans ratio) / SD of CaAR (surrogate for spatial dyssynchrony): azumolene 20 μM; for SD of CaAR (surrogate for spatial dyssynchrony): n=8
From the text: The term “cardiac dyssynchrony” as used herein means improper synchronization of calcium cycling in the heart or a part thereof, including for example temporal dyssynchrony and/or spatial dyssynchrony, optionally due to calcium leak from ryanodine type 2 receptor (RyR2) channels, leading to decreased calcium uptake and/or release in the sarcoplasmic reticulum (SR). RyR2 are found primarily in cardiac muscle and are a major mediator for SR release of calcium ions. Spatio-temporal dyssynchrony of calcium alternans can be measured by calculating a calcium alternans ratio (CaAR) for temporal mechanical dyssynchrony or by measuring the standard deviation (SD) of CaAR as a surrogate for spatial mechanical dyssynchrony. CaAR can be calculated as the amplitude of a Ca peak divided by the amplitude of a following Ca peak in a calcium transient measurement such as in FIG. 5. The smallest amplitude of Ca peak is divided by the largest amplitude of Ca peak. The larger the ratio the more similar the peak sizes. A ratio of 1 indicates no calcium alternans. Ratios of less than 1, optionally 0.8, 0.7 etc are indicative of cardiac dyssynchrony. Similarly mean standard deviations in calcium alternans ratios of greater than 0.05, greater than 0.06 or greater than 0.07 etc are indicative of cardiac dyssynchrony.
Their effect on temporal calcium alternans ratio (CaAR) before and after ventricular fibrillation (VF) (as a surrogate for temporal mechanical dyssynchrony) and standard deviation (SD) of CaAR from the anterior wall of left ventricular, which is used as a surrogate for spatial mechanical dyssynchrony, were assessed. […] Simultaneous optical mapping was performed. Calcium alternans are defined as beat-to-beat variability of 10% or more in calcium transient amplitudes.

animal hearts = assay: Optical mapping and LVDP in hearts subjected to myopathic insults, azumolene pre-treated or not (Example 3); settings: for calcium alternans ratio map values: scale 0.00 to 0.40
Description: FIGS. 6A and 6B are a schematic and images, respectively, of the experimental protocol of animal hearts, pre-treated or not with azumolene, subjected to myopathic insults.
The effect of azumolene was further investigated. Optical mapping and left ventricular developed pressure (LVDP) were measured at baseline and following inducement of myopathic insults to the hearts (see FIGS. 6A and 6B). […] FIGS. 8A and 8B show the occurrence of spatial dyssynchronic in untreated compared to azumolene-treated hearts.

[6] = both, human, in vivo, 10.9 years
[7] = azumolene pretreatment, following myopathic insults, FIG. 9

## O=C1CN(/N=C/c2ccc(-c3ccc([N+](=O)[O-])cc3)o2)C(O)=N1 [dantrolene]
[1]
  effect on the QT: did not affect the QT
[2]
  LV size and function: normal
  arrhythmia in Holter or stress tests: No major arrhythmia
  rest of the depolarization and repolarization parameters: within normal limits
  rhythm in ECGs: sinus rhythm
[2]; po
  JTc: 304 ± 79 ms
  QRS: 98 ± 10 ms
  QRS or QTc prolongation, arrhythmia, pauses, significant cardiac events: did not have QRS or QTc prolongation, arrhythmia, pauses, or significant cardiac events
  effect on LV systolic function: No detrimental effect
  mean heart rate: 67 (±14)
[3]; chronic oral dantrolene (>3 months)
  PR: 173 ± 19 ms
[3]; during dantrolene therapy, most >5 years
  major cardiac events (life-threatening arrhythmia, sudden death, myocardial infarction): No major cardiac events
[4]; [6]
  Number of patients with PR >200 ms: 1 (5) n (%)
  Number of patients with QTc >460 ms: 1 (5) n (%)
[4]; female, human, in vivo
  QTc of the patient with QTc >460 ms: 465 ms
[4]; human, in vivo
  Absolute change in average PR ± SD: 12 ± 8 (p = 0.14) ms
  Absolute change in average QRS ± SD: 4 ± 3, (p = 0.71) ms
  Absolute change in average QTc ± SD: 12 ± 17, (p = 0.27) ms
  PR of the patient with PR >200 ms: 222 ms
[4]; in vivo
  QRS or QTc prolongation: did not have QRS or QTc prolongation
  conduction and repolarization parameters: within normal limits
  dose-related QTc prolongation: No dose-related QTc prolongation
  left ventricular (LV) size and systolic function: normal
  rhythm in electrocardiograms: sinus rhythm
[4]; mean 10.9±6 years follow-up
  major cardiac events (serious arrhythmia, sudden death, or myocardial infarction): no major cardiac events
[5]
  heterogeneity in calcium alternans in response to myopathic stress: minimizes heterogenity in calcium alternans

## O=C1CN(/N=C/c2ncc(-c3ccc(Br)cc3)o2)C(=O)N1 [azumolene]
Animal hearts; after myopathic insults, FIG. 7
  mean calcium alternans index: untreated-hearts increased significantly compared to azumolene-treated hearts
Animal hearts; [7]
  LVDP: significantly improved
  dp/dtmax: significantly improved
Animal hearts; azumolene-treated heart at baseline, FIG. 8A
  calcium alternans ratio map values: 0.025 to 0.05
Animal hearts; azumolene-treated heart post myopathic insults, FIG. 8A
  calcium alternans ratio map values: 0.05 to 0.1
Animal hearts; post myopathic insults, FIG. 8B
  mean of standard deviation: significantly increased in the control group post myopathic insults compared to the azumolene-treated group
Animal hearts; vs untreated hearts, FIG. 8A
  spatial calcium release dyssynchrony: reduce spatial calcium release dyssynchrony
[5]
  heterogeneity in calcium alternans in response to myopathic stress: minimizes heterogenity in calcium alternans
[5]; after 1st VF
  CaAR (calcium alternans ratio): 0.97±0.02
  SD of CaAR (surrogate for spatial dyssynchrony): 0.025±0.003
[5]; after 2nd VF
  CaAR (calcium alternans ratio): 0.94±0.02
  SD of CaAR (surrogate for spatial dyssynchrony): 0.039±0.004
[5]; azumolene-treated vs untreated hearts after VF, FIG. 2
  spatial calcium release dyssynchrony (calcium release tracings): reduced spacial calcium release dyssynchrony; also recorded: spatial calcium release disordering is abrogated
[5]; post 1st VF at 6.0 Hz, FIG. 5D vs 5B
  calcium alternans in ratio maps: fewer calcium alternans
